What is called EC50 is the concentration that produces a half-maximal response.

Assay type in all cases: cell-based
What all share (conditions): fluorescent calcium assay

Assay [1] concerns the target TRPML1 (Homo sapiens, UniProt Q9GZU1). The assay can be described thus: Fluorescent TRPML1 assay (Fluo4-AM calcium fluorescence in doxycycline-induced HEK-293 Trex cells). In a few lines:
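hTRPML1 (mutated for cell-surface expression) in HEK-293 Trex, dox 0.5 ug/mL o/n; Fluo4-AM 1 uM ~60 min, then ~60 min de-esterification, dark; modified Ringer's + 10 mM Ca. Cmpds 20 uM–6 nM final, half-log, n=3. Ex480/Em540; % activity vs ctrls; EC50 by nonlinear regression.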

In assay [2] the target is T1, TRPML2 (Homo sapiens, UniProt Q8IZK6).
T1 construct: expressed in transfected cells
T1 sequence (Q8IZK6 1-566): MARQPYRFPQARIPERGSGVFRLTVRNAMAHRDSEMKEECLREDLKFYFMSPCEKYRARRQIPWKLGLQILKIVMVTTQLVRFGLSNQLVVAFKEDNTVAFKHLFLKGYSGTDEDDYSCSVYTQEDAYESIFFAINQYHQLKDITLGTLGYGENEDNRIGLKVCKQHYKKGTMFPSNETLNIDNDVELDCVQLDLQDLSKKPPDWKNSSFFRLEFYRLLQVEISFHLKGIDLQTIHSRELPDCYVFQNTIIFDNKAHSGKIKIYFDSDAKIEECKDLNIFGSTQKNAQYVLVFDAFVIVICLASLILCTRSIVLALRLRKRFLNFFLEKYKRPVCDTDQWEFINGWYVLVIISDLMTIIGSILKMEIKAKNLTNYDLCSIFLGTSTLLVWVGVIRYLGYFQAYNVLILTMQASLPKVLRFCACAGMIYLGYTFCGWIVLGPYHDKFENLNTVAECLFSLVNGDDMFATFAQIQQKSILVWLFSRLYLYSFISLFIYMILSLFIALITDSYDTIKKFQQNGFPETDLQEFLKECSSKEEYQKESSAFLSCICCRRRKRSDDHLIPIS
The assay can be described thus: Fluorescent TRPML2 assay (performed as for TRPML1, substituting the TRPML2 subtype). In a few lines: (§1)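 Compound series (final 6 nM-20 μM, half-log, triplicate) were added to Fluo4-AM-loaded HEK-293 Trex cells in 10 mM calcium Ringer's, expressing the human TRPML subtype after doxycycline 0.5 ug/mL induction. Percent activity versus positive/negative controls from 480/540 nm fluorescence; EC50 by non-linear regression.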

Assay [3] has as its target T2, TRPML3 (Homo sapiens, UniProt Q8TDD5).
T2 construct: expressed in transfected cells
T2 sequence (Q8TDD5 1-553): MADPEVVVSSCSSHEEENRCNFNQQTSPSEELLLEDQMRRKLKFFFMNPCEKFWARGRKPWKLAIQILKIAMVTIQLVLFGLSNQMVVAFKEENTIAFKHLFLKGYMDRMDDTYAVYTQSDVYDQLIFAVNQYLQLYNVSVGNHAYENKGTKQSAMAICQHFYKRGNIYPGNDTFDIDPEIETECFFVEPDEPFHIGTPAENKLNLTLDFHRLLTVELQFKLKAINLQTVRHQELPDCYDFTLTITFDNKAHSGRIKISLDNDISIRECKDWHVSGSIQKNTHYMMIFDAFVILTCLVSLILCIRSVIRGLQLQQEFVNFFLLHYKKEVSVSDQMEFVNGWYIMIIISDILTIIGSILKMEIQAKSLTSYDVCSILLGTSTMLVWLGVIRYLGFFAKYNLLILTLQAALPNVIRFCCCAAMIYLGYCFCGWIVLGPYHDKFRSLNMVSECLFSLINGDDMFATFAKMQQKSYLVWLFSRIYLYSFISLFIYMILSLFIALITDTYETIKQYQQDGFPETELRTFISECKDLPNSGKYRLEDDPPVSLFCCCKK
The assay can be described thus: Fluorescent TRPML3 assay (performed as for TRPML1, substituting the TRPML3 subtype). In a few lines:
as §1

Molecules are shown by their SMILES. Some results are limits rather than exact numbers.

Sequence of TRPML1 (Q9GZU1 whole entry L15A/L16A/L577A/L578A, form open): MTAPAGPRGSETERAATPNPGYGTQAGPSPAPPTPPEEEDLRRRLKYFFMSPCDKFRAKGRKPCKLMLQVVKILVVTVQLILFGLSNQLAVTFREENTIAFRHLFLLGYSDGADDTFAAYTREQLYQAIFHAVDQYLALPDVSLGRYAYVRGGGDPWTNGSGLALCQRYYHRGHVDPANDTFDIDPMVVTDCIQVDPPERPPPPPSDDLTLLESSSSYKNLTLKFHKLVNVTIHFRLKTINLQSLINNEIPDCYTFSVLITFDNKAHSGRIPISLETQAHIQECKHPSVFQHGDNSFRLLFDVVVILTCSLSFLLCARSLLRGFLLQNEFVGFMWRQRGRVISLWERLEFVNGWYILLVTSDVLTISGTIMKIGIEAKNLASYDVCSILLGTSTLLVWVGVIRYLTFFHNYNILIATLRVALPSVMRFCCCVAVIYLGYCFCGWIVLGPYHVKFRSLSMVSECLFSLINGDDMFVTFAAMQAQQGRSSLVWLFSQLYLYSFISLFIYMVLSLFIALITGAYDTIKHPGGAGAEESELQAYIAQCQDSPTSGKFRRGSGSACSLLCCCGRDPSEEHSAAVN

With `C[C@H]1CN(C(=O)OC(C)(C)C)CCN1c1ncnc2c1c(N1CCCC1)cn2[C@@H]1C[C@@H]2CC[C@H]1C2` [Compound 406, tert-butyl-(S)-4-(7-((1S,2R,4R)-bicyclo[2.2.1]heptan-2-yl)-5-(pyrrolidin-1-yl)-7H-pyrrolo[2,3-d]pyrimidin-4-yl)-3-methylpiperazine-1-carboxylate], the EC50 in assay [1] lay within 100 to 500 nM; in assay [2] it was 500 to 2000 nM; in assay [3] it was 500 to 2000 nM.
As for `C[C@H]1CN(C(=O)OC(C)(C)C)CCN1c1ncnc2c1c(N1CCC1)cn2-c1cc(C#N)ccn1` [Compound 407, tert-butyl (S)-4-(5-(azetidin-1-yl)-7-(4-cyanopyridin-2-yl)-7H-pyrrolo[2,3-d]pyrimidin-4-yl)-3-methylpiperazine-1-carboxylate], the EC50 in assay [1], in assay [2] and in assay [3] was < 100 nM throughout.
`C[C@H]1CN(C(=O)OC(C)(C)C)CCN1c1ncnc2c1c(C1CC1)cn2C1CCCN(C#N)C1` (stereo partly drawn) [Compound 410, tert-butyl (3S)-4-(7-(1-cyanopiperidin-3-yl)-5-cyclopropyl-7H-pyrrolo[2,3-d]pyrimidin-4-yl)-3-methylpiperazine-1-carboxylate]: the values for the EC50 in assay [1], in assay [2] and in assay [3] were 500 to 2000 nM, > 2000 nM and 500 to 2000 nM, respectively.
In the case of `C[C@H]1CN(C(=O)OC(C)(C)C)CCN1c1ncnc2c1c(C1(C)CC1)cn2-c1cc(C#N)ccn1` [Compound 411, tert-butyl (S)-4-(7-(4-cyanopyridin-2-yl)-5-(1-methylcyclopropyl)-7H-pyrrolo[2,3-d]pyrimidin-4-yl)-3-methylpiperazine-1-carboxylate], the EC50 in assay [1], in assay [2] and in assay [3] was < 100 nM in each case.
On to `CC(C)(C)OC(=O)N1CCN(c2ncnc3c2c(-c2ccccc2F)cn3-c2cc(C#N)ccn2)C2CC21` (stereo not drawn) [Compound 412], for which the EC50 in assay [1] was 100 to 500 nM; in assay [2], 100 to 500 nM; in assay [3], < 100 nM.
In the case of `C[C@H]1CN(C(=O)OC(C)(C)C)CCN1c1ncnc2c1c(C1CC1)cn2-c1cc(C#N)n(C)n1` [Compound 413, tert-butyl (S)-4-(7-(5-cyano-1-methyl-1H-pyrazol-3-yl)-5-cyclopropyl-7H-pyrrolo[2,3-d]pyrimidin-4-yl)-3-methylpiperazine-1-carboxylate], the EC50 in assay [1] was 100 to 500 nM; in assay [2], 100 to 500 nM; in assay [3], < 100 nM.
Turning to `C[C@H]1CN(C(=O)OC(C)(C)C)CCN1c1ncnc2c1c(C1CC1)cn2C1CC(C#N)C1` (stereo partly drawn) [Compound 414, tert-butyl (S)-4-(7-(3-cyanocyclobutyl)-5-cyclopropyl-7H-pyrrolo[2,3-d]pyrimidin-4-yl)-3-methylpiperazine-1-carboxylate], the EC50 is 500 to 2000 nM in assay [1], > 2000 nM in assay [2] and 500 to 2000 nM in assay [3].
Consider `C[C@H]1CN(C(=O)OC(C)(C)C)CCN1c1ncnc2c1c(N(C)C)cn2-c1cccc(Cl)c1` [Compound 415], for which the EC50 in assay [1] is < 100 nM; in assay [2], 100 to 500 nM; in assay [3] it was < 100 nM.
For `C[C@@H]1CN(c2ncnc3c2c(N2CCCC2)cn3-c2cc(C#N)ccn2)CCN1C(=O)OC(C)(C)C` [Compound 416, tert-butyl (R)-4-(7-(4-cyanopyridin-2-yl)-5-(pyrrolidin-1-yl)-7H-pyrrolo[2,3-d]pyrimidin-4-yl)-2-methylpiperazine-1-carboxylate], the EC50 in assay [1], in assay [2] and in assay [3] was < 100 nM throughout.
For `C[C@@H]1CN(c2cn(-c3cc(C#N)ccn3)c3ncnc(N4CCN(C(=O)OC(C)(C)C)C[C@@H]4C)c23)CCO1` [Compound 417, tert-butyl (S)-4-(7-(4-cyanopyridin-2-yl)-5-((R)-2-methylmorpholino)-7H-pyrrolo[2,3-d]pyrimidin-4-yl)-3-methylpiperazine-1-carboxylate], the EC50 in assay [1] is < 100 nM; in assay [2], 100 to 500 nM; in assay [3], < 100 nM.
Regarding `C[C@@H]1CN(c2nccc3c2c(C2CC2)cn3-c2cc(F)cc(F)c2)CCN1C(=O)OC(C)(C)C` [Compound 418, tert-butyl (R)-4-(3-cyclopropyl-1-(3,5-difluorophenyl)-1H-pyrrolo[3,2-c]pyridin-4-yl)-2-methylpiperazine-1-carboxylate], the values for the concentration giving a half-maximal response (EC50) in assay [1], in assay [2] and in assay [3] were < 100 nM, 100 to 500 nM and < 100 nM, respectively.
Take `C[C@@H]1COCCN1c1cn(-c2cc(C#N)ccn2)c2ncnc(N3CCN(C(=O)OC(C)(C)C)C[C@@H]3C)c12` [Compound 419, tert-butyl (S)-4-(7-(4-cyanopyridin-2-yl)-5-((R)-3-methylmorpholino)-7H-pyrrolo[2,3-d]pyrimidin-4-yl)-3-methylpiperazine-1-carboxylate]: the EC50 was < 100 nM in assay [1], 100 to 500 nM in assay [2] and < 100 nM in assay [3].
With `CC(C)(C)OC(=O)N1CCN(c2ncnc3c2c(-c2ccccc2F)cn3-c2cc(C#N)ccn2)C(C)(C)C1` [Compound 420, tert-butyl 4-(7-(4-cyanopyridin-2-yl)-5-(2-fluorophenyl)-7H-pyrrolo[2,3-d]pyrimidin-4-yl)-3,3-dimethylpiperazine-1-carboxylate], the EC50 in assay [1], in assay [2] and in assay [3] was < 100 nM each time.
For the compound `CC(C)(C)OC(=O)N1CCN(c2ncnc3c2c(C2CC2)cn3-c2cc(C#N)ccn2)C(C)(C)C1` [Compound 421, tert-butyl 4-(7-(4-cyanopyridin-2-yl)-5-cyclopropyl-7H-pyrrolo[2,3-d]pyrimidin-4-yl)-3,3-dimethylpiperazine-1-carboxylate], the EC50 in assay [1] was 100 to 500 nM; in assay [2], < 100 nM; in assay [3], < 100 nM.
On to `CCN(CC)c1cn(-c2cc(C#N)ccn2)c2ncnc(N3CCN(C(=O)OC(C)(C)C(F)(F)F)C[C@@H]3C)c12` [Compound 422, 1,1,1-trifluoro-2-methylpropan-2-yl (S)-4-(7-(4-cyanopyridin-2-yl)-5-(diethylamino)-7H-pyrrolo[2,3-d]pyrimidin-4-yl)-3-methylpiperazine-1-carboxylate], for which the EC50 was < 100 nM in assay [1], 100 to 500 nM in assay [2] and < 100 nM in assay [3].
Regarding `CCCN(CC)c1cn(-c2cc(C#N)ccn2)c2ncnc(N3CCN(C(=O)OC(C)(C)C)C[C@@H]3C)c12` [Compound 423, tert-butyl (S)-4-(7-(4-cyanopyridin-2-yl)-5-(ethyl(propyl)amino)-7H-pyrrolo[2,3-d]pyrimidin-4-yl)-3-methylpiperazine-1-carboxylate], the EC50 in assay [1], in assay [2] and in assay [3] was < 100 nM throughout.
As to `CCN(CC)c1cn(-c2cc(C#N)ccn2)c2ncnc(N3CCN(C(=O)OC(C)(C)C)C[C@@H]3C)c12` [Compound 424, tert-butyl (S)-4-(7-(4-cyanopyridin-2-yl)-5-(diethylamino)-7H-pyrrolo[2,3-d]pyrimidin-4-yl)-3-methylpiperazine-1-carboxylate], the EC50 is < 100 nM in assay [1], 100 to 500 nM in assay [2] and < 100 nM in assay [3].
For `CCN(CC)c1cn(-c2cc(C#N)ccn2)c2ncnc(N3CCN(C(=O)OC(C)(C)C)[C@H](C)C3)c12` [Compound 425, tert-butyl (R)-4-(7-(4-cyanopyridin-2-yl)-5-(diethylamino)-7H-pyrrolo[2,3-d]pyrimidin-4-yl)-2-methylpiperazine-1-carboxylate], the results for the EC50 in assay [1], in assay [2] and in assay [3] were < 100 nM, 100 to 500 nM and < 100 nM, respectively.
`C[C@H]1CN(C(=O)OC(C)(C)C)CCN1c1ncnc2c1c(N(C)C)cn2-c1cc(C#N)ccn1` [Compound 426, tert-butyl (S)-4-(7-(4-cyanopyridin-2-yl)-5-(dimethylamino)-7H-pyrrolo[2,3-d]pyrimidin-4-yl)-3-methylpiperazine-1-carboxylate]: the EC50 in assay [1], in assay [2] and in assay [3] was < 100 nM in each case.
